From the supplement of paper PMC5908809

Assays:
[1] = test system: NK-YS (IL-2 2.5 ng/mL); test: drug sensitivity score (DSS) (DSS units); higher = more sensitive; extreme values may be limits of the assay; details: 72 h
[2] = test system: SNK-6 (IL-2 2.5 ng/mL); test: as above; details: 72 h
[3] = test system: normal primary NK cells, pool 1 (3 donors) (IL-2 2.5 ng/mL); test: as above; details: 72 h
[4] = test system: KAI3 (IL-2 2.5 ng/mL); test: as above; details: 72 h
[5] = test system: normal primary NK cells, pool 2 (3 donors) (IL-2 2.5 ng/mL); test: as above; details: 72 h
[6] = test system: normal primary NK cells, pool 3 (3 donors) (IL-2 2.5 ng/mL); test: as above; details: 72 h
[7] = test system: KHYG-1 (IL-2 2.5 ng/mL); test: as above; details: 72 h
[8] = test system: normal primary NK cells, pool 1 (3 donors), resting (IL-2 0 ng/mL); test: as above; details: 72 h
[9] = test system: DERL-7 (IL-2 2.5 ng/mL); test: as above; details: 72 h
[10] = test system: IMC-1 (IL-2 20 ng/mL); test: as above; details: 72 h
[11] = test system: YT (IL-2 2.5 ng/mL); test: as above; details: 72 h
[12] = test system: NKL (IL-2 2.5 ng/mL); test: as above; details: 72 h
[13] = test system: NK-92 (IL-2 2.5 ng/mL); test: as above; details: 72 h
[14] = test system: NK-YS (IL-2 2.5 ng/mL); test: percent inhibition of viability; higher = more inhibition; details: 72 h
[15] = test system: SNK-6 (IL-2 2.5 ng/mL); test: as above; details: 72 h
[16] = test system: normal primary NK cells, pool 1 (3 donors) (IL-2 2.5 ng/mL); test: as above; details: 72 h
[17] = test system: KAI3 (IL-2 2.5 ng/mL); test: as above; details: 72 h
[18] = test system: normal primary NK cells, pool 2 (3 donors) (IL-2 2.5 ng/mL); test: as above; details: 72 h
[19] = test system: normal primary NK cells, pool 3 (3 donors) (IL-2 2.5 ng/mL); test: as above; details: 72 h
[20] = test system: KHYG-1 (IL-2 2.5 ng/mL); test: as above; details: 72 h
[21] = test system: normal primary NK cells, pool 1 (3 donors), resting (IL-2 0 ng/mL); test: as above; details: 72 h
[22] = test system: DERL-7 (IL-2 2.5 ng/mL); test: as above; details: 72 h
[23] = test system: IMC-1 (IL-2 20 ng/mL); test: as above; details: 72 h
[24] = test system: YT (IL-2 2.5 ng/mL); test: as above; details: 72 h
[25] = test system: NKL (IL-2 2.5 ng/mL); test: as above; details: 72 h
[26] = test system: NK-92 (IL-2 2.5 ng/mL); test: as above; details: 72 h
[27] = test system: normal NK cells expanded with K562-aAPC; test: as above; details: 72 h, IL-2 2.5 ng/mL
Procedure: (§1)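 Drug sensitivity and resistance testing on K562-aAPC-expanded normal NK cells: 5 concentrations (10-fold steps over a 10,000-fold range), 72 h at 37 °C, viability by CellTiter-Glo normalised to DMSO and benzethonium chloride controls; DSS from the fitted curve.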

[28] = test system: normal NK cells expanded with K562-aAPC; test: drug sensitivity score (DSS) (DSS units); higher = more sensitive; extreme values may be limits of the assay; details: 72 h; IL-2 2.5 ng/mL
Procedure: as §1

## C[C@]12C=CC(=O)C=C1CC[C@@H]1[C@@H]2C(=O)C[C@@]2(C)[C@H]1CC[C@]2(O)C(=O)CO [Prednisone] (max concentration tested 10000 nM)
[1]
  drug sensitivity score: 0.36
[2]
  drug sensitivity score: 2.13
[3]
  drug sensitivity score: 0
[4]
  drug sensitivity score: 0.51
[5]
  drug sensitivity score: 0
[6]
  drug sensitivity score: 0
[7]
  drug sensitivity score: 0.05
[8]
  drug sensitivity score: 0.01
[9]
  drug sensitivity score: 0
[10]
  drug sensitivity score: 0.5
[11]
  drug sensitivity score: 8.17
[12]
  drug sensitivity score: 0.06
[13]
  drug sensitivity score: 0.06
[14]; 1 nM
  percent inhibition of viability: 1.7%
[14]; 10 nM
  percent inhibition of viability: 1.75%
[14]; 100 nM
  percent inhibition of viability: 7.19%
[14]; 1000 nM
  percent inhibition of viability: 1.77%
[14]; 10000 nM
  percent inhibition of viability: 14.5%
[15]; 1 nM
  percent inhibition of viability: -5.48%
[15]; 10 nM
  percent inhibition of viability: 15%
[15]; 100 nM
  percent inhibition of viability: 3.96%
[15]; 1000 nM
  percent inhibition of viability: 19.8%
[15]; 10000 nM
  percent inhibition of viability: 15%
[16]; 1 nM
  percent inhibition of viability: 4.02%
[16]; 10 nM
  percent inhibition of viability: -6.96%
[16]; 100 nM
  percent inhibition of viability: 4.16%
[16]; 1000 nM
  percent inhibition of viability: -9.18%
[16]; 10000 nM
  percent inhibition of viability: 9.23%
[17]; 1 nM
  percent inhibition of viability: -0.89%
[17]; 10 nM
  percent inhibition of viability: -0.49%
[17]; 100 nM
  percent inhibition of viability: 8.97%
[17]; 1000 nM
  percent inhibition of viability: -3.86%
[17]; 10000 nM
  percent inhibition of viability: 21.4%
[18]; 1 nM
  percent inhibition of viability: -7.97%
[18]; 10 nM
  percent inhibition of viability: -0.38%
[18]; 100 nM
  percent inhibition of viability: -4.79%
[18]; 1000 nM
  percent inhibition of viability: -8.7%
[18]; 10000 nM
  percent inhibition of viability: -1.49%
[19]; 1 nM
  percent inhibition of viability: -8.77%
[19]; 10 nM
  percent inhibition of viability: -7.64%
[19]; 100 nM
  percent inhibition of viability: -1.51%
[19]; 1000 nM
  percent inhibition of viability: -4.94%
[19]; 10000 nM
  percent inhibition of viability: 0.45%
[20]; 1 nM
  percent inhibition of viability: -2.3%
[20]; 10 nM
  percent inhibition of viability: -2.14%
[20]; 100 nM
  percent inhibition of viability: 4.01%
[20]; 1000 nM
  percent inhibition of viability: 1.48%
[20]; 10000 nM
  percent inhibition of viability: 11.2%
[21]; 1 nM
  percent inhibition of viability: 11.6%
[21]; 10 nM
  percent inhibition of viability: -5.07%
[21]; 100 nM
  percent inhibition of viability: 6.95%
[21]; 1000 nM
  percent inhibition of viability: -4.28%
[21]; 10000 nM
  percent inhibition of viability: 11.9%
[22]; 1 nM
  percent inhibition of viability: -1.82%
[22]; 10 nM
  percent inhibition of viability: -3.2%
[22]; 100 nM
  percent inhibition of viability: -10.6%
[22]; 1000 nM
  percent inhibition of viability: 1.18%
[22]; 10000 nM
  percent inhibition of viability: -9%
[23]; 1 nM
  percent inhibition of viability: 0.28%
[23]; 10 nM
  percent inhibition of viability: -0.37%
[23]; 100 nM
  percent inhibition of viability: 3.06%
[23]; 1000 nM
  percent inhibition of viability: 4.05%
[23]; 10000 nM
  percent inhibition of viability: 15.4%
[24]; 1 nM
  percent inhibition of viability: 1.47%
[24]; 10 nM
  percent inhibition of viability: 5.85%
[24]; 100 nM
  percent inhibition of viability: 29.5%
[24]; 1000 nM
  percent inhibition of viability: 18.9%
[24]; 10000 nM
  percent inhibition of viability: 32.6%
[25]; 1 nM
  percent inhibition of viability: -9.04%
[25]; 10 nM
  percent inhibition of viability: 4.61%
[25]; 100 nM
  percent inhibition of viability: -4.53%
[25]; 1000 nM
  percent inhibition of viability: 4.17%
[25]; 10000 nM
  percent inhibition of viability: 10.7%
[26]; 1 nM
  percent inhibition of viability: -5.87%
[26]; 10 nM
  percent inhibition of viability: -0.1%
[26]; 100 nM
  percent inhibition of viability: 11.4%
[26]; 1000 nM
  percent inhibition of viability: -3.86%
[26]; 10000 nM
  percent inhibition of viability: 13.6%
[27]; 1 nM
  percent inhibition of viability: -4.43%
[27]; 10 nM
  percent inhibition of viability: -1.43%
[27]; 100 nM
  percent inhibition of viability: -0.64%
[27]; 1000 nM
  percent inhibition of viability: 6.95%
[27]; 10000 nM
  percent inhibition of viability: 22%
[28]
  drug sensitivity score: 1.61

## Cc1c(Cn2c(C)nc3c(C(=O)O)cc(N4CCOCC4)cc32)cccc1C(F)(F)F (max concentration tested 10000 nM)
[1]
  drug sensitivity score: 0.34
[2]
  drug sensitivity score: 0.03
[3]
  drug sensitivity score: 0
[4]
  drug sensitivity score: 3.6
[5]
  drug sensitivity score: 0.23
[6]
  drug sensitivity score: 0.01
[7]
  drug sensitivity score: 3.2
[8]
  drug sensitivity score: 0
[9]
  drug sensitivity score: 0.85
[10]
  drug sensitivity score: 0
[11]
  drug sensitivity score: 1.67
[12]
  drug sensitivity score: 0.29
[13]
  drug sensitivity score: 3.86
[14]; 1 nM
  percent inhibition of viability: -2.91%
[14]; 10 nM
  percent inhibition of viability: -0.33%
[14]; 100 nM
  percent inhibition of viability: 7.31%
[14]; 1000 nM
  percent inhibition of viability: 5.6%
[14]; 10000 nM
  percent inhibition of viability: 15.8%
[15]; 1 nM
  percent inhibition of viability: -7.05%
[15]; 10 nM
  percent inhibition of viability: -21.9%
[15]; 100 nM
  percent inhibition of viability: 3.71%
[15]; 1000 nM
  percent inhibition of viability: -6.21%
[15]; 10000 nM
  percent inhibition of viability: 13.1%
[16]; 1 nM
  percent inhibition of viability: -6.21%
[16]; 10 nM
  percent inhibition of viability: 1.65%
[16]; 100 nM
  percent inhibition of viability: -5.56%
[16]; 1000 nM
  percent inhibition of viability: -4.02%
[16]; 10000 nM
  percent inhibition of viability: 4.77%
[17]; 1 nM
  percent inhibition of viability: 8.08%
[17]; 10 nM
  percent inhibition of viability: 9.48%
[17]; 100 nM
  percent inhibition of viability: 9.01%
[17]; 1000 nM
  percent inhibition of viability: 12.5%
[17]; 10000 nM
  percent inhibition of viability: 37.9%
[18]; 1 nM
  percent inhibition of viability: -11.1%
[18]; 10 nM
  percent inhibition of viability: -13.9%
[18]; 100 nM
  percent inhibition of viability: -1.99%
[18]; 1000 nM
  percent inhibition of viability: 1.31%
[18]; 10000 nM
  percent inhibition of viability: 13.6%
[19]; 1 nM
  percent inhibition of viability: -1.55%
[19]; 10 nM
  percent inhibition of viability: 0.84%
[19]; 100 nM
  percent inhibition of viability: 4.49%
[19]; 1000 nM
  percent inhibition of viability: -0.45%
[19]; 10000 nM
  percent inhibition of viability: 11.4%
[20]; 1 nM
  percent inhibition of viability: -2.27%
[20]; 10 nM
  percent inhibition of viability: 6.11%
[20]; 100 nM
  percent inhibition of viability: 14.1%
[20]; 1000 nM
  percent inhibition of viability: 8.86%
[20]; 10000 nM
  percent inhibition of viability: 38.2%
[21]; 1 nM
  percent inhibition of viability: -5.25%
[21]; 10 nM
  percent inhibition of viability: 4.41%
[21]; 100 nM
  percent inhibition of viability: 3.22%
[21]; 1000 nM
  percent inhibition of viability: -19.1%
[21]; 10000 nM
  percent inhibition of viability: -11.9%
[22]; 1 nM
  percent inhibition of viability: 3.53%
[22]; 10 nM
  percent inhibition of viability: -4.49%
[22]; 100 nM
  percent inhibition of viability: 1.36%
[22]; 1000 nM
  percent inhibition of viability: 12.1%
[22]; 10000 nM
  percent inhibition of viability: 13.4%
[23]; 1 nM
  percent inhibition of viability: -6.71%
[23]; 10 nM
  percent inhibition of viability: -4.25%
[23]; 100 nM
  percent inhibition of viability: -1.73%
[23]; 1000 nM
  percent inhibition of viability: -3.09%
[23]; 10000 nM
  percent inhibition of viability: 11.3%
[24]; 1 nM
  percent inhibition of viability: 1%
[24]; 10 nM
  percent inhibition of viability: 6.27%
[24]; 100 nM
  percent inhibition of viability: 9.12%
[24]; 1000 nM
  percent inhibition of viability: 14.3%
[24]; 10000 nM
  percent inhibition of viability: 16.5%
[25]; 1 nM
  percent inhibition of viability: -15.7%
[25]; 10 nM
  percent inhibition of viability: -8.49%
[25]; 100 nM
  percent inhibition of viability: -1.03%
[25]; 1000 nM
  percent inhibition of viability: 1.51%
[25]; 10000 nM
  percent inhibition of viability: 14.1%
[26]; 1 nM
  percent inhibition of viability: -7.97%
[26]; 10 nM
  percent inhibition of viability: -2.84%
[26]; 100 nM
  percent inhibition of viability: 22%
[26]; 1000 nM
  percent inhibition of viability: 7.51%
[26]; 10000 nM
  percent inhibition of viability: 49%
[27]; 1 nM
  percent inhibition of viability: 2.47%
[27]; 10 nM
  percent inhibition of viability: -0.33%
[27]; 100 nM
  percent inhibition of viability: 2.82%
[27]; 1000 nM
  percent inhibition of viability: 11.7%
[27]; 10000 nM
  percent inhibition of viability: 17.4%
[28]
  drug sensitivity score: 1.17
